In patent US20100062012A1, “Negative Genetic Regulation of Cancer Cell Renewal in Synergy with Notch- or Numb-Specific Immunotherapy” (priority 2007, published 2010):
Marks after values point to notes of the source that are not given here.

Experiments:
[1] = system: CD8+ T cells (TAL) from ascites of HLA-A2+ ovarian cancer patients; test: peptide-HLA-A2-IgG dimer staining of ovarian tumor associated lymphocytes (flow cytometry); type: cell-based, human; settings: for patients with activated CD8+ Perforin+ cells expressing TCR specific for the peptide: five ovarian cancer patients
Text: Lymphocyte culture. Lymphocytes were isolated by Ficoll-gradient centrifugation from heparinized ascites from HLA-A2^+ ovarian cancer patients. After separation, we cultured lymphocytes with RPMI 1640 medium with 10% FCS and 300 IU of IL-2 (Biosource Camarillo, Calif.) for one week, as we described (23,24).
We identified cells expressing high concentrations/numbers of T cell receptors (TCRs) reactive with each peptide to evaluate the role of TCR density in CTL differentiation upon in vivo stimulation with the same ligands. The TCR^+ population which usually includes cells staining with antigen-tetramers/dimers with a mean fluorescence intensity (MFI) higher than 101, was divided in three populations, one staining with antigen-pulsed HLA-A2/IgG dimers (dimers) with a MFI (TCR) between 101 and 102, and other which stained with antigen-pulsed dimers with a MFI (TCR) between 102 and 103, and other which stained with antigen-pulsed dimers with a MFI (TCR) between 103 and 104. These populations were designated as TCR^lo, TCRmed, and […], respectively, as we described (26).
T cell: peptide-HLA-A2-lgG dimer interaction. Expression of TCRs specific for peptides Notch1 (1940-1948), Notch1 (2112-2120), Numb1 (87-95), Gli1 (580-588) and AESI (128-137) was determined using HLA-A2-IgG-dimmers (BD Bioscience Pharmingen). The peptide loaded dimers were prepared as we previously described (23). Staining of lymphocyte with dimers was performed as described previously (24,27,28).
The same cells were also stained for the expression of CD8 antigen and the presence of Perforin, (effector pore forming enzyme) using specific antibodies conjugated to distinct fluorochromes than the dimers: fluorescein isothiocianate (FITC), allophycocyanin (APC) and PE. Cells reacting with the corresponding peptide-loaded dimers are designated as Notch1-1940-TCR^+, Notch1-2112-TCR^+, Numb1-87-TCR^+, and […] cells, respectively. Cells reacted with control HLA-A2-IgG dimers not loaded with peptide are designated as dNP-TCR^+ cells.

[2] = system: MCF7; test: MTT inhibition of proliferation; type: cell-based; settings: Homo sapiens, 72 h
Text: (§1) Inhibition of proliferation of tumor cell lines by anticancer drugs.

[3] = system: MIA-PaCa-2; test: MTT inhibition of proliferation; type: cell-based; settings: Homo sapiens; MIA-PaCa-2, MTT, 72 h
Text: as §1

[4] = system: PANC-1; test: MTT inhibition of proliferation; type: cell-based; settings: Homo sapiens; PANC-1, MTT, 72 h
Text: as §1

[5] = system: AsPC-1; test: MTT inhibition of proliferation; type: cell-based, human; settings: Homo sapiens, ASPC1, 72 h, AsPC-1, MTT, 72 h
Text: as §1

[6] = system: SKOV-3; test: MTT inhibition of proliferation; type: cell-based, human; settings: Homo sapiens, SK-OV-3, 72 h, SKOV-3, MTT
Text: as §1

[7] = system: MCF7; test: Flow cytometry of CSt-C markers after culture with drugs; type: cell-based, human
Method: (§2) Flow cytometery analysis. All cells were cultured with Gem at 2×IC50 of gemcitabine for 10 days. Cultured cells (2×10^5) were washed in cold-PBS followed by blocking with 20 μL of 1 mg/mL of human IgG (Sigma, Saint Louis, Mo.) for 1 hour on ice. This step was necessary to inhibit non-specific binding of immunoglobulins during staining. Cells were then triple-stained with antibodies against ESA, CD44, and CD24. Analysis was performed with Becton Dickinson FACSCalibur and Cell Quest software (Becton Dickinson). Cells were gated on ESA+ population. Expression of CD24 and CD44 was examined in gated ESA+ cells as we described (26). The population of the ESA+, CD44hi and CD24low/− cells was calculated as percent of total cells and total ESA+ cells. All cell lines were also stained with a MIC-A/B and CD133, and analyzed as above.

[8] = system: MIA-PaCa-2; test: as above; type: cell-based, human
Method: as §2

[9] = system: MIA-PaCa-2; test: Flow cytometry of NKG2D ligands MIC-A/B in drug-resistant cells; type: cell-based, human; settings: MIA PaCa-2, FIG. 7A
Method: as §2
To address the hypothesis that drug-resistant cancer cells are more sensitive to cellular immune effectors, we quantified expression of NKG2D ligands, MIC-A and -B (58, 59). ESA^+ MIA-PaCa-2 cells were analyzed for MIC-A/B. MCF7 cells were analyzed with CD44, CD24 and MIC-A/B (FIG. 7B), because almost all MCF7 cells (95% and more) expressed ESA.

[10] = system: MIA-PaCa-2; test: Flow cytometry of CSt-C markers after culture with drugs; type: cell-based, human; settings: starting from 3.0×10^6 Mia-PaCa-2 cells
[11] = target: Notch receptor on MCF7 cells (human); test: cell-based or functional assay
[12] = system: MCF7 cells; test: Stimulation of MCF7 / GEMRes MCF7 by DLL4; type: cell-based, human
Method: Stimulation of GEMRes MCF7 by DLL4. GEMRes MCF7 were obtained after culture with 0.3 uM GEM for 7 weeks. MCF7 were stimulated for 24 hrs, in medium containing estradiol, fibroblast growth factor in the presence or absence of DLL4, as described (40).

[13] = Patient 1, TCR-density High, TAL one week in 300 IU IL-2
[14] = MIA-PaCa-2 after culture with drug

recombinant human Delta-like protein 4, sequence (Q9NR61 27-524 limits assumed, stated change not applied): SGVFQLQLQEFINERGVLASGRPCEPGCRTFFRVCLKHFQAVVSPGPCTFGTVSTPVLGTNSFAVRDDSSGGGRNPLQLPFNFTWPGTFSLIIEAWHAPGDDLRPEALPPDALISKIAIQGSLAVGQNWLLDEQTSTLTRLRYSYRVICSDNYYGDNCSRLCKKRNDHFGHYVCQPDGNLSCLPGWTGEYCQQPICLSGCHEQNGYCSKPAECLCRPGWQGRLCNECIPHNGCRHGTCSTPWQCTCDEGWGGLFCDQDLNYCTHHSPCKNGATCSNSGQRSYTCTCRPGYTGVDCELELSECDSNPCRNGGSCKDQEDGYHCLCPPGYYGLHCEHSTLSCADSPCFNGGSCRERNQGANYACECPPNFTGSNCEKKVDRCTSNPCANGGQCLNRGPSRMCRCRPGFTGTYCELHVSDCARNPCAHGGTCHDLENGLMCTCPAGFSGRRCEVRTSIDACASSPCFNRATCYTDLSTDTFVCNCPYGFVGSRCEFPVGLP

Compound | % TCR+ cells for HLA-A2: peptide [1, 13] | % TCR+ cells for HLA-A2: peptide ([1]; Patient 1, TCR-density Low) | % TCR+ cells for HLA-A2: peptide ([1]; Patient 1, TCR-density Med) | % TCR+ cells for HLA-A2: peptide ([1]; Patient 2, TCR-density High) | % TCR+ cells for HLA-A2: peptide ([1]; Patient 2, TCR-density Low) | % TCR+ cells for HLA-A2: peptide ([1]; Patient 2, TCR-density Med) | % TCR+ cells for HLA-A2: peptide ([1]; Patient 3, TCR-density High) | % TCR+ cells for HLA-A2: peptide ([1]; Patient 3, TCR-density Low) | % TCR+ cells for HLA-A2: peptide ([1]; Patient 3, TCR-density Med) | % TCR+ cells for HLA-A2: peptide ([1]; Patient 4, TCR-density High) | % TCR+ cells for HLA-A2: peptide ([1]; Patient 4, TCR-density Low) | % TCR+ cells for HLA-A2: peptide ([1]; Patient 4, TCR-density Med) | % TCR+ cells for HLA-A2: peptide ([1]; Patient 5, TCR-density High) | % TCR+ cells for HLA-A2: peptide ([1]; Patient 5, TCR-density Low) | % TCR+ cells for HLA-A2: peptide ([1]; Patient 5, TCR-density Med) | also measured
LPL TPLPVGL [AES1] | 0.19% | 0.23% | 0.23% | – | – | – | – | – | – | – | – | – | – | – | – | –
O=c1[nH]cc(F)c(=O)[nH]1 [5-FU, 5-fluorouracil] | – | – | – | – | – | – | – | – | – | – | – | – | – | – | – | IC50 [2]: 1.3 µM; IC50 [3]: 3.7 µM; IC50 [4]: 0.8 µM; IC50 [5]: 15.2 µM; IC50 [6]: 3.6 µM; change of CSt-like-C population ([7]; MCF7): increased; cells harvested ([7]; after culture of 3×10^6 MCF-7 cells): 1.6 ×10^6; change of CSt-C (CSt-like-C) population ([8]; MIA-PaCa-2): increased; % CD44hi CD24- in ESA+ cells [8, 14]: 0.2%; % CD44hi CD24hi in ESA+ cells [8, 14]: 7.1%; % CD44hi CD24low in ESA+ cells [8, 14]: 19.8%; % CSt-like-C [8, 14]: 16.4%; % ESA+ [8, 14]: 83.0%; number of cells expressing MICA and MICB in drug-resistant cells [9]: increased; cells harvested [10]: 3.4 ×10^6 cells
recombinant human Delta-like protein 4 (from UniProt Q9NR61 27-524) (ligand) | – | – | – | – | – | – | – | – | – | – | – | – | – | – | – | Harvested cells: 10^6 (MCF7, DLL4, no GEM; NT control 12.96) [11]: 1.88e+07 cells; Harvested cells: 10^6 (MCF7, DLL4 with GEM; GEM alone 1.32) [11]: 2.16e+06 cells; Stimulation Index (proliferation of MCF7 cells, DLL4, no GEM; NT control 4.32) [11]: 6.27; Stimulation Index (proliferation of MCF7 cells, DLL4 with GEM; GEM alone 0.44) [11]: 0.72; increase in total cell number at stimulation with DLL4 [11]: > 45%
RLLEASADA (listed as Homo sapiens) [Notch1-1947, used as specificity control] | – | – | – | 0.10% | 0.99% | 0.32% | 0.10% | 0.65% | 0.24% | 0.22% | 0.53% | 0.26% | 0.14% | 1.98% | 0.26% | –
RLLDEYNLV (listed as Homo sapiens) [Notch1-2112] | 0.26% | 0.24% | 0.28% | 0.17% | 2.09* % | 0.35% | 0.08% | 0.43% | 0.28% | 0.08% | 0.88% | 0.34* % | 0.17% | 2.52% | 0.36% | TCRmed cells relative to base-line NP dimers ([1]; Patient 4): 2.61 times; TCRmed cells relative to base-line control dNP ([1]; Patient 5): 1.63 times; patients with activated CD8+ Perforin+ cells expressing TCR specific for the peptide [1]: two of five
DLL4: recombinant human Delta-like protein 4, soluble Notch ligand | – | – | – | – | – | – | – | – | – | – | – | – | – | – | – | expansion of CD44+ CD24low cells compared with medium ([12]; DLL4-activation of GEMRes cells): 2-3 fold; CD44hi CD24hi (% of cells) ([12]; MCF7): 36.4%; CD44hi CD24hi (cell number) ([12]; MCF7): 6.84; CD44hi CD24low (% of cells) ([12]; MCF7): (3.5%); CD44hi CD24low (cell number) ([12]; MCF7): 0.66 × 10^6; ratio CD44hi CD24hi to CD44hi CD24low ([12]; MCF7): 10.4; Stimulation Index ([12]; MCF7, harvested/seeded): 6.27; Harvested cells ([12]; MCF7, seeded 3.0 x 10^6): *18.80 10^6
VLWVSADGL (listed as Homo sapiens) [Numb1-87] | 0.64* % | 0.51% | 0.66* % | 0.16% | 2.76* % | 0.46% | 0.09% | 0.50% | 0.21% | 0.22% | 0.53% | 0.26% | 0.27* % | 1.84% | 0.27% | TCRhi CD8+ cells relative to cells reactive with control dNP dimers ([1]; Patient 5): 2.45 times; increase in numbers of TCRhi Perhi cells compared with Notch1-2112 dimer ([1]; TAL-1, FIG. 4): 3.3 fold; amount of Perforin in peptide-TCR+ cells ([1]; TAL-1, FIG. 4G): highest amount of Perforin; increase in numbers of TCR+ cells ([1]; TAL-2, large-size lymphocytes, FIG. 5H): 3 fold; patients with activated CD8+ Perforin+ cells expressing TCR specific for the peptide [1]: three of five
